Measurements reported in ChEMBL document CHEMBL4811216, “Chemotherapy for human schistosomiasis: how far have we come? What's new? Where do we go from here?” (RSC Med Chem, 2020).

What was measured:
Schistosoma mansoni [1] = experiment: Antischistosomal activity against Schistosoma mansoni LE assessed as worm mortality at 200 uM measured after 24 hrs relative to control; type: functional
Schistosoma mansoni [2] = experiment: Antischistosomal activity against Schistosoma mansoni LE assessed as reduction in worm motor activity at 100 uM measured after 72 hrs relative to control; type: functional; set-up: scale not given: the % may be the effect or the level left
Schistosoma mansoni [3] = experiment: Antischistosomal activity against Schistosoma mansoni BH assessed as tegument damage at 12.5 to 100 uM measured up to 72 hrs by confocal laser scanning microscopic method relative to control; type: functional; details: dose 12.5-100 µM, time hrs <=72
Schistosoma mansoni [4] = experiment: Antischistosomal activity against Schistosoma mansoni BH assessed as reduction in motor activity at 12.5 to 100 uM measured up to 72 hrs by light microscopic method relative to control; type: functional; set-up: scale not given: the % may be the effect or the level left; details: dose 12.5-100 µM, time hrs <=72
Schistosoma mansoni [5] = experiment: Antischistosomal activity against Schistosoma mansoni BH assessed as worm death at 12.5 to 100 uM measured up to 72 hrs by light microscopic method relative to control; type: functional; details: dose 12.5-100 µM, time hrs <=72
Schistosoma mansoni [6] = experiment: Antischistosomal activity against Schistosoma mansoni BH infected in Balb/C mouse assessed as reduction in worm burden at 100 mg/kg, po measured after 2 weeks by Kato-Katz quantitative method; type: functional; set-up: Activity: scale not given: the % may be the effect or the level left
Schistosoma mansoni [7] = experiment: Antischistosomal activity against Schistosoma mansoni incubated for 24 hrs by MTT assay; type: functional, organism-based
Schistosoma mansoni [8] = experiment: Antischistosomal activity against Schistosoma mansoni assessed as reduction in worm motor activity at <=100 uM measured within 72 hrs relative to control; type: functional; set-up: scale not given: the % may be the effect or the level left; details: dose microM <=100
Schistosoma mansoni [9] = experiment: Antischistosomal activity against Schistosoma mansoni assessed as tegument damage at <=100 uM measured within 72 hrs relative to control; type: functional; details: dose microM <=100
Schistosoma mansoni [10] = experiment: Antischistosomal activity against Schistosoma mansoni assessed as worm death at <= 100 uM measured within 72 hrs relative to control; type: functional; details: dose microM <=100
Schistosoma mansoni [11] = experiment: Antischistosomal activity against Schistosoma mansoni miracidia assessed as worm death incubated for 1 to 2 hrs by microscopic method relative to control; type: functional; details: time 1-2 hrs
Schistosoma mansoni [12] = experiment: Antischistosomal activity against Schistosoma mansoni cercariae assessed as worm death incubated for 2 hrs by microscopic method relative to control; type: functional
Schistosoma mansoni [13] = experiment: Antischistosomal activity against Schistosoma mansoni Liberian assessed as worm death at 20 uM incubated for 72 hrs measured every 24 hrs by microscopic method relative to control; type: functional
Schistosoma mansoni [14] = experiment: Antischistosomal activity against Schistosoma mansoni Liberian assessed as reduction in egg production incubated for 72 hrs measured every 24 hrs; type: functional, organism-based
Schistosoma mansoni [15] = experiment: Antischistosomal activity against Schistosoma mansoni Liberian assessed as reduction in worm motor activity incubated for 72 hrs measured every 24 hrs by microscopic method relative to control; type: functional, organism-based
Schistosoma mansoni [16] = experiment: Schistosomicidal-activity against Schistosoma mansoni LE assessed as reduction in motor activity at 50 uM measured after 120 hrs relative to control; type: functional; set-up: scale not given: the % may be the effect or the level left
Schistosoma mansoni [17] = experiment: Schistosomicidal-activity against Schistosoma mansoni LE assessed as seperation of worm couples at 25 uM measured within 120 hrs relative to control; type: functional

COC(=O)/C=C/c1ccc2c(c1)[C@@H](C(=O)OC)[C@H](c1ccc(OC(C)=O)cc1)O2
Activity (Schistosoma mansoni [1]): 100%
Activity (Schistosoma mansoni [2]): 100%

C=C1C(=O)O[C@@H]2C3O[C@]3(C)CC/C=C(\C)CC[C@@H]12 (some centres not stated)
Activity (Schistosoma mansoni [3]): 100%
Activity (Schistosoma mansoni [4]): 100%
mortality (Schistosoma mansoni [5]): 100%
Activity (Schistosoma mansoni [6]): 64.1%

C/C=C/c1cc(OC)c2c(c1)C(C)C(c1ccc(O)c(OC)c1)O2 (configuration not stated) [DEHRODIISOEUGENOL]
IC50 (Schistosoma mansoni [7]): 53.5 µM
Activity (Schistosoma mansoni [8]): 100%
Activity (Schistosoma mansoni [9]): 25%
mortality (Schistosoma mansoni [10]): 100%

CC1=CC(=O)CC(C)(C)C1(O)/C=C/C(C)O[C@@H]1O[C@H](COC(=O)c2cc(O)c(O)c(O)c2)[C@@H](O)[C@H](O)[C@H]1O (some centres not stated)
mortality (Schistosoma mansoni [11]): 99.7%
mortality (Schistosoma mansoni [12]): 41%

C[C@@H](N)CCCCCC/C=C\CCCCCCCCN
mortality at 20 µM (Schistosoma mansoni [13]): 100%
EC50 (Schistosoma mansoni [14]): 3.6 µM
EC50 (Schistosoma mansoni [15]): 8.8 µM

COc1cc([C@@H]2OC(=O)[C@@H]3[C@H]2C(=O)O[C@H]3c2ccc(O)c(OC)c2)ccc1O
Activity (Schistosoma mansoni [16]): 25%
Activity (Schistosoma mansoni [17]): 25%
